Earlier results as cited in patent US20150306063A1, “COMPOSITION AND METHOD FOR VAGINAL THERAPY” (priority 2014, published 2015).

Details: elderly patients, including patients older than 65 years of age

For COc1ccccc1OCC(O)COC(N)=O (stereo not shown) [Methocarbamol, 3-(2-methoxyphenoxy)-1,2-propanediol 1-carbamate], the “half-life in the elderly as compared with a younger population” value is given as “only slightly prolonged”.
